Experiment [1] deals with Rat peritoneal macrophages. Kind of experiment: Inhibition of priming of rat peritoneal macrophages, Superoxide Anion (O2-) assay. Format: cell-based. The following applies: Peritoneal macrophage, opsonized zymosan (3 mg/mL) as stimulus, rrIFN-γ (1000Units/mL), compound 0 to 1000µM, superoxide anion readout, read-out: IC₅₀ (inhibits the priming of rat macrophages in vitro). The method, then:
Rat peritoneal macrophages were isolated and grown in cell culture essentially as described by Edwards et al. [Science 239, 769 (1988)]. Macrophages were incubated along with opsonized zymosan (3 mg/mL), which acts as a particulate stimulus, and recombinant rat γ-interferon (rrIFN-γ)(1000Units/mL), which acts as an activating lymphokine, in the presence of various concentrations of (1R,3S)-Cis-1-(9-adenyl)-3-hydroxy-4-cyclopentene (0 to 1000µM). The degree of macrophage priming was measured using the Superoxide Anion (O₂⁻) assay as described by Edwards et al. [Science 239, 769 (1988)].

The test system of a further experiment is rat PMNs. Kind of experiment: Inhibition of rrIFN-γ priming of rat PMN, Superoxide Anion (O2-) assay. Format: cell-based. The following applies: PMNs from rat air pouch elicited with rHuIL-1 (25ng/pouch); PMA (200ng/mL) as stimulus, rrIFN-γ (1000 Units/mL); compound 0 to 1000µM; superoxide anion readout; read-out: IC₅₀ (inhibits the rrIFN-γ priming of rat PMN in vitro). The method, then:
The rat air pouch model of inflammation was used to obtain rat PMNs using 25ng/pouch of recombinant human interleukin-1 (rHuIL-1) to elicit the cells essentially according to the method of Esser et al. [Internat. J. Tissue Reactions XI, 291 (1989)]. PMNs were incubated along with phorbol myristate acetate (PMA) (200ng/mL), which acts as a soluble stimulus, and rrIFN-γ (1000 Units/mL), which act as a stimulatory lymphokine, in the presence of various concentrations of (1R,3S)-Cis-1-(9-adenyl)-3-hydroxy-4-cyclopentene (0 to 1000µM). The degree of macrophage priming was measured using the Superoxide Anion (O₂⁻) assay as described by Edwards et al. [Science 239, 769 (1988)].

Structures can show the parent of a compound that is named as a salt.

For `Nc1ncnc2c1ncn2[C@H]1C=C[C@@H](O)C1` [Example 1, (1R,3S)-Cis-1-(9-adenyl)-3-hydroxy-4-cyclopentene hydrochloride], the IC50 in experiment [1] stood at 25 µM; with rat PMNs it was 0.015 µM.

(Values after patent EP0475413B1, “Carbocyclic nucleoside analogs useful as immunosuppressants” (HOECHST MARION ROUSSEL, INC., priority 1990, dated 1992).)
